Tests used:
Type in all cases: cell-based, human
[1] = test system: senescent fibroblasts (passage 37); assay: Cell proliferation and formation of cell colonies (crystal violet staining); conditions: CP-466722; staining after 4 days
Protocol: A human fibroblast cell line was inoculated into a Dulbecco's Modified Eagle's medium (DMEM) containing 10% fetal bovine serum (FBS), 100 units/ml of penicillin, and 100 μg/ml of streptomycin (wherein these two antibiotics were purchased from Gibro-BRL, Grand Island, N.Y.), and then, cultured in a 5% CO2 incubator at a temperature of 37° C. The fibroblast cell line (i.e., M11 strain) was a cell line derived from the foreskin of a child. When the cells were grown to about 85% confluency in a plate, the cells were subjected to subculture. The early subculture was carried out at a split ratio of 1:4, and the late subculture was carried out at a split ratio of 1:2. When the cell doubling time was 14 days, the cells were considered to be senescent fibroblasts (passages 35 to 37).
To determine the optimal concentration upon the treatment with an ATM-kinase inhibitor KU-60019 (SELLECKCHEM, S1570, salt), the senescent fibroblasts (passage 37) were inoculated into each well of a 6-well plate at a concentration of 2,000 cells/well, and then, KU-60019 was added to each well of the 6-well plate ([…]). In addition, as a negative control group, the cells were cultured under the same conditions as described above, except that a medium used herein contained a dimethyl sulfoxide (DMSO) (0.05 (v/v) %) medium. […]

[2] = test system: progeria senescent fibroblasts (passage 17); assay: Lipofuscin autofluorescence (FACS); conditions: CP-466722 0.1 μM, 4 weeks
Protocol: (§1) In addition, the amounts of lipofuscin in the cells cultured as described above were measured. The progeria senescent fibroblasts (passage 17) that became senescent in the presence of KU-60019 (0.5 μM) were cultured in a CO2 incubator at a temperature of 37° C. for 4 weeks. The medium was replaced by a fresh medium containing KU-60019 (0.5 μM), once every 4 days. Lipofuscin is characterized by having autofluorescence capability, and in this regard, the cultured cells were irradiated with a wavelength of 488 nm by using a FACSCaliber (Beckton Dickinson), and then, measured with radiation emitted from a wavelength of 520 nm. The results were analyzed using Cell Quest 3.2 software (Beckton Dickinson). FIG. 11 is a graph showing lipofuscin measured in the cells that were cultured in the presence of KU-60019.
(§2) In addition, the amounts of lipofuscin in the cells cultured as described above were measured. […] Lipofuscin is characterized by having autofluorescence capability, and in this regard, the cultured cells were irradiated with a wavelength of 488 nm by using a FACSCaliber (Beckton Dickinson), and then, measured with radiation emitted from a wavelength of 520 nm. The results were analyzed using Cell Quest 3.2 software (Beckton Dickinson).

[3] = test system: senescent myoblasts (passage 11); assay: Lipofuscin autofluorescence (FACS); conditions: CP-466722 0.1 μM, 4 weeks
Protocol: as §1, with “The” for “The progeria”, “myoblast” for “fibroblasts”, “11)” for “17)”, “17” for “11”
as §2, with “Dickinson). FIG. 23 is a graph showing lipofuscin measured in the cells that were cultured in the presence of CP-466722.” for “Dickinson).”

COc1cc2ncnc(-n3nc(-c4ccccn4)nc3N)c2cc1OC [CP-466722, 2-(6,7-dimethoxyquinazolin-4-yl)-5-(pyridin-2-yl)-2H-1,2,4-triazol-3-amine]
concentration producing best results in the cell proliferation and the formation of cell colonies [1]: 0.1 µM
amount of lipofuscin vs control [2]: significantly decreased
amount of lipofuscin vs control [3]: significantly decreased
